In patent publication US20230085307A1, “PYRIDAZINONE COMPOUND AND HERBICIDE” (NISSAN CHEMICAL CORPORATION, priority 2019, published 2023):

How the values were obtained:
[1] = system: blackgrass; test: Test Example 5: herbicidal effect by foliage application, plastic box (Table 20, symbol J); format: in vivo, blackgrass (Alopecurus myosuroides); details: foliage application, AAH 320 g/ha, evaluated three weeks after application
How it was run: (§1)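 Sow seeds spot-wise in sterilized diluvial soil; cover with ~1.5 cm soil. Grow 14 days in greenhouse, 25° C. to 30° C. Spray foliage with emulsion diluted to predetermined amount. Rate effect after 3 weeks.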

[2] = system: green foxtail; test: Test Example 5: herbicidal effect by foliage application, plastic box (Table 20, symbol G); format: in vivo, green foxtail (Setaria viridis); details: foliage application, AAH 320 g/ha, evaluated three weeks after application
How it was run: as §1

[3] = system: barnyard grass; test: Test Example 5: herbicidal effect by foliage application, plastic box (Table 20, symbol H); format: in vivo, barnyard grass (Echinochloa crus-galli); details: foliage application, AAH 320 g/ha, evaluated three weeks after application
How it was run: as §1

[4] = system: wild oat; test: Test Example 4: herbicidal effect by soil treatment (Table 19, symbol I); format: in vivo, wild oat (Avena fatua); details: amount of applied herbicide 320 g/ha
How it was run: (§2)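 Applied as a water-diluted emulsion, the compound was sprayed onto soil covering newly sown seeds. Evaluation came three weeks after application, in a greenhouse held at 25° C. to 30° C.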

[5] = system: late watergrass; test: Test Example 1: herbicidal activity, application before weed generation under submerged conditions (Table 16, symbol A); format: in vivo, late watergrass (Echinochloa oryzicola); details: 320 g/ha applied herbicide
How it was run: (§3)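 Alluvial soil was flooded to 4 cm depth, weed seeds were sown mixed and 2.5-leaf rice seedlings were transplanted. On sowing day, the compound's emulsion, diluted in water to a set dose, was applied to the water surface. Plants grew at 25–30 °C and were scored 0–5 after three weeks.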

[6] = system: chickweed; test: Test Example 4: herbicidal effect by soil treatment (Table 19, symbol P); format: in vivo, common chickweed (Stellaria media); details: amount of applied herbicide 320 g/ha
How it was run: as §2

[7] = system: wild oat; test: Test Example 5: herbicidal effect by foliage application, plastic box (Table 20, symbol I); format: in vivo, wild oat (Avena fatua); details: foliage application, AAH 320 g/ha, evaluated three weeks after application
How it was run: as §1

[8] = system: windgrass; test: Test Example 4: herbicidal effect by soil treatment (Table 19, symbol L); format: in vivo, windgrass (Apera spica-venti); details: amount of applied herbicide 320 g/ha
How it was run: as §2

[9] = system: Italian ryegrass; test: Test Example 4: herbicidal effect by soil treatment (Table 19, symbol K); format: in vivo, Italian ryegrass (Lolium multiflorum); details: amount of applied herbicide 320 g/ha
How it was run: as §2

[10] = system: late watergrass; test: Test Example 2: herbicidal activity, application during weed generation under submerged conditions (Table 17, symbol A); format: in vivo, late watergrass (Echinochloa oryzicola); details: AAH 320 g/ha; application during weed generation, submerged conditions
How it was run: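 In this pot test, flooded alluvial soil (water depth 4 cm) holds all three species sown as a mixture. Once seedlings have one to two leaves, the compound's emulsion, thinned with water to the intended dose, is poured on the water; grading follows after three weeks on the earlier criteria.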

[11] = system: lambsquarters; test: Test Example 4: herbicidal effect by soil treatment (Table 19, symbol O); format: in vivo, lambsquarters (Chenopodium album); details: amount of applied herbicide 320 g/ha
How it was run: as §2

[12] = system: velvetleaf; test: Test Example 5: herbicidal effect by foliage application, plastic box (Table 20, symbol M); format: in vivo, velvetleaf (Abutilon theophrasti); details: foliage application, AAH 320 g/ha, evaluated three weeks after application
How it was run: as §1

[13] = system: rice flat sedge; test: Test Example 3: herbicidal effect by foliage application, Wagner pot (Table 18, symbol E); format: in vivo, rice flat sedge (Cyperus iria); details: amount of applied herbicide 320 g/ha
How it was run: (§4)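 Plants were sown in alluvial soil held under 0.1–0.5 cm standing water and grown 14 days in a greenhouse at 25–30 °C. An emulsifiable formulation, water-diluted to the set dose, was then sprayed onto the foliage, and effects were scored three weeks later using previously defined criteria.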

[14] = system: Japanese bulrush; test: Test Example 1: herbicidal activity, application before weed generation under submerged conditions (Table 16, symbol B); format: in vivo, Japanese bulrush (Schoenoplectus juncoides); details: 320 g/ha applied herbicide
How it was run: as §3

[15] = system: Chinese sprangletop; test: Test Example 3: herbicidal effect by foliage application, Wagner pot (Table 18, symbol D); format: in vivo, chinese sprangletop (Leptochloa chinensis); details: amount of applied herbicide 320 g/ha
How it was run: as §4

[16] = system: southern crabgrass; test: Test Example 4: herbicidal effect by soil treatment (Table 19, symbol F); format: in vivo, southern crabgrass (Digitaria ciliaris); details: amount of applied herbicide 320 g/ha
How it was run: as §2

[17] = system: Italian ryegrass; test: Test Example 5: herbicidal effect by foliage application, plastic box (Table 20, symbol K); format: in vivo, Italian ryegrass (Lolium multiflorum); details: foliage application, AAH 320 g/ha, evaluated three weeks after application
How it was run: as §1

Structure (SMILES) | J: blackgrass, herbicidal effect (criteria 0-5) [1] | G: green foxtail, herbicidal effect (criteria 0-5) [2] | H: barnyard grass, herbicidal effect (criteria 0-5) [3] | herbicidal effect on I: wild oat [4] | Herbicidal effect on A: late watergrass (grade 0-5) [5] | herbicidal effect on P: chickweed [6] | I: wild oat, herbicidal effect (criteria 0-5) [7] | herbicidal effect on L: windgrass [8] | herbicidal effect on K: Italian ryegrass [9] | herbicidal effect rating, A: late watergrass [10] | herbicidal effect on O: lambsquarters [11] | M: velvetleaf, herbicidal effect (criteria 0-5) [12] | herbicidal effect on E: rice flat sedge [13] | Herbicidal effect on B: Japanese bulrush (grade 0-5) [14] | herbicidal effect on D: Chinese sprangletop [15] | herbicidal effect on F: southern crabgrass [16] | K: Italian ryegrass, herbicidal effect (criteria 0-5) [17]
CCOC(=O)Oc1c(C)nn(C)c(=O)c1-c1c(-c2ccc(OC(F)F)cc2)sc2ccc(F)cc12 [2-292] | 4 (Herbicidal rate of 70% or more and less than 90%) | 5 (Herbicidal rate of 90% or more (almost completely withered)) | 5 (Herbicidal rate of 90% or more (almost completely withered)) | 0 (Herbicidal rate of 5% or less (almost no effect)) | 5 (Herbicidal rate of 90% or more (almost completely withered)) | 4 (Herbicidal rate of 70% or more and less than 90%) | 3 (Herbicidal rate of 40% or more and less than 70%) | 1 (Herbicidal rate of 5% or more and less than 20%) | 5 (Herbicidal rate of 90% or more (almost completely withered)) | 5 (Herbicidal rate of 90% or more (almost completely withered)) | 5 (Herbicidal rate of 90% or more (almost completely withered)) | 5 (Herbicidal rate of 90% or more (almost completely withered)) | 4 (Herbicidal rate of 70% or more and less than 90%) | 5 (Herbicidal rate of 90% or more (almost completely withered)) | 4 (Herbicidal rate of 70% or more and less than 90%) | 3 (Herbicidal rate of 40% or more and less than 70%) | 5 (Herbicidal rate of 90% or more (almost completely withered))
Cc1nn(C)c(=O)c(-c2c(-c3ccc(OC(F)F)cc3)sc3ccc(F)cc23)c1OC(=O)OCCCl [2-293] | 5 (Herbicidal rate of 90% or more (almost completely withered)) | 5 (Herbicidal rate of 90% or more (almost completely withered)) | 5 (Herbicidal rate of 90% or more (almost completely withered)) | 0 (Herbicidal rate of 5% or less (almost no effect)) | 5 (Herbicidal rate of 90% or more (almost completely withered)) | 4 (Herbicidal rate of 70% or more and less than 90%) | 3 (Herbicidal rate of 40% or more and less than 70%) | 4 (Herbicidal rate of 70% or more and less than 90%) | 5 (Herbicidal rate of 90% or more (almost completely withered)) | 4 (Herbicidal rate of 70% or more and less than 90%) | 5 (Herbicidal rate of 90% or more (almost completely withered)) | 5 (Herbicidal rate of 90% or more (almost completely withered)) | 5 (Herbicidal rate of 90% or more (almost completely withered)) | 5 (Herbicidal rate of 90% or more (almost completely withered)) | 3 (Herbicidal rate of 40% or more and less than 70%) | 4 (Herbicidal rate of 70% or more and less than 90%) | 5 (Herbicidal rate of 90% or more (almost completely withered))
